Like-named read-outs stand apart in the source and are kept apart here. Square brackets hold non-standard residues; d marks the D form. Ends that are not written are not given here. Peptide text beside a SMILES is read from it.

The assay deals with T1, human CMKLR1 (Homo sapiens, UniProt Q99788).
T1 construct: host or cells: HEK293A (Invitrogen), stably expressing human Gα15
T1 sequence (Q99788 1-373): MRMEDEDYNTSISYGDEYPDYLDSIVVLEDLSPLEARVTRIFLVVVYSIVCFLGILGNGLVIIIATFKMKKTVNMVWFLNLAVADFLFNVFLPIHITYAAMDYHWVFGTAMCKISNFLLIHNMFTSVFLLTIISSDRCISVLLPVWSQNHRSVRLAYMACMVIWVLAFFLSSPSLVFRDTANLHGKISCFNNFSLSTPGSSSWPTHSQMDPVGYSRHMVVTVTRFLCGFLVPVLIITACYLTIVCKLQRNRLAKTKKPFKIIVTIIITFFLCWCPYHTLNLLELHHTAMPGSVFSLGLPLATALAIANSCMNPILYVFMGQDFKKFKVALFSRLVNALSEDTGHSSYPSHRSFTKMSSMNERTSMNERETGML
The experiment in a line: Ca2+ mobilization (CellLux imaging) agonist assay in HEK293A cells expressing CMKLR1 and Gα15. It counts as cell-based. As to the method:
HEK293A cells (Invitrogen) expressing CMKLR1 and Gα15 were seeded at 5*10^4 cells/well in a poly-D-lysine coated 96-well black well/clear bottom plate (BD Falcon) and cultured overnight. From eighteen to twenty-four hours later, cells were loaded with FLUO4-AM (Invitrogen). Then the cells were washed two times with C1 solution (130 mM NaCl, 5 mM KCl, 10 mM HEPES pH 7.4, 2 mM CaCl2, and 10 mM Glucose). After the final wash, a 100 µL of residual volume remained on the cells. Peptides were dissolved in 10% DMSO to a concentration of 1 mM and were diluted in C1 solution with 0.1 % BSA. They were aliquoted as 2x solutions in 96-well plates and were simultaneously transferred by the robotic system within the imager from the ligand plate to the cell plate. […] Fluorescence data was generated in duplicate and experiments were repeated for at least three times. […] For the calculation of concentration-response curves, signals of two wells receiving the same concentration of test substances were averaged and the fluorescence changes of corresponding buffer C1 wells were subtracted. Signals were normalized to background fluorescence. For the calculation of EC50 values, plots of amplitude versus concentrations were prepared in SigmaPlot 11.
In general terms: Calcium assays in cells follow changes in intracellular calcium, usually with a dye or a luminescent sensor.

The mark [1] stands for this setting: Ca2+ mobilization, CMKLR1, decimal comma.
Where [2] appears, read: Ca2+ mobilization, CMKLR1, decimal comma, NR where no EC50 is given, read-out: EC50.

As to `CC(C)C[C@H](NC(=O)[C@@H](N)Cc1ccc(O)cc1)C(=O)N1CCC[C@H]1C(=O)NCC(=O)N[C@@H](CCC(N)=O)C(=O)N[C@@H](Cc1ccccc1)C(=O)N[C@@H](C)C(=O)N[C@@H](Cc1ccccc1)C(=O)N[C@H](CO)C(=O)O` [compound 33], the max response is on record as 0,51 DF/F0. Take `CC(C)C[C@H](NC(=O)[C@H](N)Cc1ccc(O)cc1)C(=O)N1CCC[C@H]1C(=O)NCC(=O)N[C@@H](CCC(N)=O)C(=O)N[C@@H](Cc1ccc(O)cc1)C(=O)N[C@@H](C)C(=O)N[C@@H](Cc1ccccc1)C(=O)N[C@@H](Cc1ccccc1)C(=O)O` [compound 43] (H-[dY]LPGQYAFF-OH; N-terminus assumed): the max response under setting [1] is reported as 1,13 DF/F0.

As for YFPGQYAFF-NH2 [compound 1], under setting [1], the max response was 1,47 DF/F0. Further, the EC50 (as a rule, the concentration giving half of the maximal effect) under setting [2] stood at 0.0152 µM. Regarding `C[C@H](NC(=O)[C@H](Cc1ccccc1)NC(=O)[C@H](CCC(N)=O)NC(=O)CNC(=O)[C@@H]1CCCN1C(=O)[C@@H](N)Cc1ccccc1)C(=O)N[C@@H](Cc1ccccc1)C(=O)N[C@H](CO)C(=O)N[C@H](CO)C(=O)O` [compound 105] (H-FPGQFAF[dS][dS]-OH; N-terminus assumed), under setting [1], the max response was 1,81 DF/F0. Further, under setting [2], the concentration for a half-maximal effect (EC50) was found to be 0.611 µM.

Turning to YFPGQWAWS-NH2 [compound 9], under setting [1], the max response is listed as 1,61 DF/F0. Under setting [2], the 50% effective concentration (EC50) is 1.88 µM. The like results for `C[C@H](NC(=O)[C@@H](Cc1ccccc1)NC(=O)[C@H](CCC(N)=O)NC(=O)CNC(=O)[C@@H]1CCCN1C(=O)[C@H](Cc1ccccc1)NC(=O)[C@@H](N)Cc1ccc(O)cc1)C(=O)N[C@@H](Cc1c[nH]c2ccccc12)C(=O)N[C@@H](CO)C(N)=O` [compound 13] (H-YFPGQ[dF]AWS-NH2; N-terminus assumed) were, in that order, 1,22 DF/F0 and 3.2 µM.

Take FYPGQWAYS-NH2 [compound 20]: the max response under setting [1] is listed as 0,64 DF/F0. Further, the EC50 under setting [2] turned out to be 12.9 µM.

Regarding YFPGNFAFS-OH [compound 32], the max response is listed as 0,89 DF/F0. Regarding `NC(=O)CC[C@H](NC(=O)CNC(=O)[C@@H]1CCCN1C(=O)[C@@H](Cc1ccccc1)NC(=O)[C@H](N)Cc1ccccc1)C(=O)N[C@@H](Cc1ccccc1)C(=O)NCC(=O)N[C@H](Cc1ccc(O)cc1)C(=O)N[C@H](CC(N)=O)C(N)=O` [compound 15] (H-[dF][dF]PGQFG[dY][dN]-NH2; N-terminus assumed), the max response under setting [1] is on record as 1,47 DF/F0. Besides, the half-maximal effective concentration (EC50) under setting [2] was found to be 3.47 µM. The like results for FPPGQGAFK-OH [compound 66] were, in that order, 0,67 DF/F0 and 1.18 µM. Consider `CC(C)C[C@H](NC(=O)[C@H](N)Cc1ccc(O)cc1)C(=O)N1CCC[C@H]1C(=O)N[C@H](CO)C(=O)N[C@@H](CCC(N)=O)C(=O)N[C@@H](Cc1ccc(O)cc1)C(=O)N[C@@H](C)C(=O)N[C@@H](Cc1ccccc1)C(=O)N[C@H](Cc1ccccc1)C(=O)O` [yLPsQYAFf] (H-[dY]LP[dS]QYAF[dF]-OH; N-terminus assumed), for which the EC50 came to 0.00049 ± 0.00013 µM.

As to YFPGQFAFK-NH2 [compound 2], under setting [1], the max response is on record as 1,84 DF/F0. For the same compound, under setting [2], the EC50 stood at 0.0373 µM. As for `C[C@H](NC(=O)[C@H](Cc1ccccc1)NC(=O)[C@H](CCC(N)=O)NC(=O)CNC(=O)[C@@H]1CCCN1C(=O)[C@H](CC(=O)O)NC(=O)[C@H](N)Cc1ccc(O)cc1)C(=O)N[C@@H](Cc1ccccc1)C(=O)N[C@H](CO)C(=O)O` [compound 112] (H-[dY]DPGQFAF[dS]-OH; N-terminus assumed), the max response is listed as 1,12 DF/F0. As to YFPGYFAFG-NH2 [compound 11], the max response under setting [1] is on record as 1,41 DF/F0. Besides, the concentration giving a half-maximal response (EC50) under setting [2] came to 2.62 µM. In the same order, the values of `C[C@H](NC(=O)[C@@H](Cc1ccccc1)NC(=O)[C@H](CCC(N)=O)NC(=O)CNC(=O)[C@@H]1CCCN1C(=O)[C@@H](Cc1ccc(O)cc1)NC(=O)[C@H](N)Cc1ccc(O)cc1)C(=O)N[C@H](Cc1ccc(O)cc1)C(=O)N[C@H](CO)C(N)=O` [compound 8] (H-[dY][dY]PGQ[dF]A[dY][dS]-NH2; N-terminus assumed) are 1,31 DF/F0 and 1.88 µM. The like results for `C[C@H](NC(=O)[C@H](Cc1ccc(O)cc1)NC(=O)[C@@H](CCC(N)=O)NC(=O)CNC(=O)[C@@H]1CCCN1C(=O)[C@@H](Cc1ccc(O)cc1)NC(=O)[C@@H](N)Cc1ccc(O)cc1)C(=O)N[C@@H](Cc1ccc(O)cc1)C(=O)N[C@@H](CO)C(N)=O` [compound 19] (H-Y[dY]PG[dQ]YAYS-NH2; N-terminus assumed) were, in that order, 0,42 DF/F0 and 9.55 µM. For the compound `CC(C)C[C@@H](NC(=O)[C@H](N)Cc1ccc(O)cc1)C(=O)N1CCC[C@H]1C(=O)NCC(=O)N[C@@H](CCC(N)=O)C(=O)N[C@@H](Cc1ccccc1)C(=O)N[C@@H](C)C(=O)N[C@@H](Cc1ccccc1)C(=O)N[C@H](CO)C(=O)O` [compound 98], the max response is 1,68 DF/F0. `C[C@H](NC(=O)[C@H](Cc1ccccc1)NC(=O)[C@H](CCC(N)=O)NC(=O)CNC(=O)[C@H]1CCCN1C(=O)CNC(=O)[C@@H]1CCCN1)C(=O)N[C@@H](Cc1ccccc1)C(=O)N[C@H](CO)C(=O)O` [compound 97] (H-PG[dP]GQFAF[dS]-OH; N-terminus assumed): the max response under setting [1] was 1,72 DF/F0. The EC50 under setting [2] came to 0.1 µM. With `C[C@H](NC(=O)[C@H](Cc1ccccc1)NC(=O)[C@@H](CCC(N)=O)NC(=O)CNC(=O)[C@H](Cc1ccccc1)NC(=O)[C@H](C)NC(=O)[C@@H](N)Cc1ccccc1)C(=O)N[C@@H](Cc1ccccc1)C(=O)N[C@H](CO)C(=O)O` [compound 114] (H-FAFG[dQ]FAF[dS]-OH; N-terminus assumed), under setting [1], the max response is 1,24 DF/F0. Also, the concentration giving a half-maximal response (EC50) under setting [2] came to 2.44 µM.

As for WYPGNFAFS-NH2 [compound 16], the max response under setting [1] is given as 1,47 DF/F0. Moreover, under setting [2], the EC50 came to 3.84 µM. For the compound YFPGHFAFS-OH [compound 31], the max response is reported as 1,07 DF/F0.

Take `CC(C)C[C@H](NC(=O)[C@@H](N)Cc1ccc(O)cc1)C(=O)N1CCC[C@H]1C(=O)NCC(=O)N[C@@H](CCC(N)=O)C(=O)N[C@@H](Cc1ccccc1)C(=O)N[C@H](Cc1ccccc1)C(=O)N[C@@H](Cc1ccccc1)C(=O)N[C@@H](CO)C(N)=O` [compound 4] (H-YLPGQF[dF]FS-NH2; N-terminus assumed): under setting [1], the max response is on record as 1,66 DF/F0. Regarding `CC(C)C[C@H](NC(=O)CNC(=O)[C@H](Cc1ccc(O)cc1)NC(=O)[C@H](CC(C)C)NC(=O)[C@H](N)Cc1ccccc1)C(=O)N[C@@H](Cc1ccc(O)cc1)C(=O)N[C@@H](C)C(=O)N[C@@H](Cc1ccccc1)C(=O)N1CCC[C@@H]1C(=O)O` [compound 108] (H-[dF]LYGLYAF[dP]-OH; N-terminus assumed), the max response under setting [1] was 1,61 DF/F0. For the same compound, under setting [2], the EC50 turned out to be 1.21 µM. For the compound YFPGQFDFS-OH [compound 53], the max response was 0,93 DF/F0. Take `CC(C)C[C@H](NC(=O)[C@@H](Cc1ccccc1)NC(=O)[C@H]1CCCN1C(=O)[C@H](CC(C)C)NC(=O)[C@H](C)NC(=O)[C@H](Cc1ccc(O)cc1)NC(=O)[C@H]1CCCN1C(=O)[C@H](CC(C)C)NC(=O)[C@H](N)Cc1ccccc1)C(=O)O` [compound 118] (H-[dF]L[dP]YAL[dP][dF]L-OH; N-terminus assumed): the max response under setting [1] is listed as 0,61 DF/F0. Further, the EC50 under setting [2] amounted to 21.5 µM. Regarding YFPGNFAFS-NH2 [compound 6], the max response under setting [1] is on record as 1,30 DF/F0. For the compound `CC(C)C[C@H](NC(=O)[C@H](Cc1ccccc1)NC(=O)[C@H](Cc1ccc(O)cc1)NC(=O)[C@@H]1CCCN1C(=O)[C@H]1CCCN1C(=O)[C@@H]1CCCN1C(=O)[C@H](CC(C)C)NC(=O)[C@H](N)Cc1ccc(O)cc1)C(=O)N[C@H](Cc1ccccc1)C(=O)O` [compound 143] (H-[dY]LP[dP]PYFL[dF]-OH; N-terminus assumed), the max response under setting [1] is 1,62 DF/F0. Further, the EC50 under setting [2] is 0.139 µM. In the case of `CC[C@@H](C)[C@@H](NC(=O)[C@H](Cc1ccccc1)NC(=O)[C@H](CCC(N)=O)NC(=O)CNC(=O)[C@@H]1CCCN1C(=O)[C@H](Cc1ccccc1)NC(=O)[C@H](N)Cc1c[nH]c2ccccc12)C(=O)N[C@@H](Cc1ccccc1)C(=O)N[C@@H](CO)C(N)=O` [compound 18] (H-[dW]FPGQF[dI]FS-NH2; N-terminus assumed), the max response under setting [1] is 1,40 DF/F0. The 50% effective concentration (EC50) under setting [2] was 7.13 µM. In the same order, the values of `CC(C)C[C@H](NC(=O)[C@@H](N)Cc1ccccc1)C(=O)N1CCC[C@H]1C(=O)NCC(=O)N[C@@H](CCC(N)=O)C(=O)N[C@@H](Cc1ccccc1)C(=O)N[C@@H](C)C(=O)N[C@@H](Cc1ccccc1)C(=O)N1CCC[C@@H]1C(=O)O` [compound 110] (H-FLPGQFAF[dP]-OH; N-terminus assumed) are 1,59 DF/F0 and 1.77 µM.

The record behind these values is paper PMC3351444, “Molecular Evolution of a Peptide GPCR Ligand Driven by Artificial Neural Networks” (PLoS ONE, 2012).
